Broadly, the melting point is the temperature, or range, at which the solid turns liquid.

The text below walks through data of paper PMC6271825, “Synthesis and Cytotoxic Activity Evaluation of Novel Arylpiperazine Derivatives on Human Prostate Cancer Cell Lines” (Molecules, 2014).

SMILES strings stand for the structures. Where a name gives a salt, the structure may show the parent alone.

For the molecule `c1ccc(C2CCN(CCc3ccc(COc4ccc5c(c4)OCO5)cc3)CC2)cc1` (as salt: HCl) [Compound 28, 1-(2-(4-((Benzo[d][1,3]dioxol-5-yloxy)methyl)phenyl)ethyl)-4-phenylpiperidine], the melting point was 183 to 184 °C.

As to `Fc1ccc(N2CCN(CCc3ccc(COc4ccc5c(c4)OCO5)cc3)CC2)c(F)c1` (as salt: HCl) [Compound 17, 1-(2-(4-((Benzo[d][1,3]dioxol-5-yloxy)methyl)phenyl)ethyl)-4-(2,4-difluorophenyl)piperazine], the melting point was in the range of 169 to 170 °C.

As to `Cc1ccccc1N1CCN(CCc2ccc(COc3ccc4c(c3)OCO4)cc2)CC1` (as salt: HCl) [Compound 9, 1-(2-(4-((Benzo[d][1,3]dioxol-5-yloxy)methyl)phenyl)ethyl)-4-o-tolylpiperazine], the melting point lay within 202 to 203 °C. `Clc1cccc(N2CCN(CCc3ccc(COc4ccc5c(c4)OCO5)cc3)CC2)c1` (as salt: HCl) [Compound 21, 1-(2-(4-((Benzo[d][1,3]dioxol-5-yloxy)methyl)phenyl)ethyl)-4-(3-chlorophenyl)piperazine] yielded a melting point of 177 to 178 °C. Take `Fc1ccc(N2CCN(CCc3ccc(COc4ccc5c(c4)OCO5)cc3)CC2)cc1` (as salt: HCl) [Compound 16, 1-(2-(4-((Benzo[d][1,3]dioxol-5-yloxy)methyl)phenyl)ethyl)-4-(4-fluorophenyl)piperazine]: the melting point fell in the range of 196 to 197 °C.

Molecule `c1ccc(N2CCN(CCc3ccc(COc4ccc5c(c4)OCO5)cc3)CC2)nc1` (as salt: HCl) [Compound 7, 1-(2-(4-((Benzo[d][1,3]dioxol-5-yloxy)methyl)phenyl)ethyl)-4-(pyridin-2-yl)piperazine] registered a melting point of 185 to 186 °C.
